What was measured:
Experiment in all cases: Cholinesterase Inhibition Assay
Acetylcholinesterase [1] = target: Acetylcholinesterase (Homo sapiens, UniProt P22303); details: pH 7.3; 25 °C
Procedure: (§1) The cholinesterase assays were performed using colorimetric method reported by Ellman. The absorbance changed at 412 nm and was monitored with spectrophotometer. The reaction rates were compared and the percent inhibition due to the presence of test compounds was calculated. Inhibition curve was obtained for each compound. The compound concentration producing 50% of enzyme inhibition (IC50) was determined.

Acetylcholinesterase [2] = target: Acetylcholinesterase (Electrophorus electricus, UniProt O42275)
Chain of Acetylcholinesterase (Electrophorus electricus, UniProt O42275) (O42275 whole entry): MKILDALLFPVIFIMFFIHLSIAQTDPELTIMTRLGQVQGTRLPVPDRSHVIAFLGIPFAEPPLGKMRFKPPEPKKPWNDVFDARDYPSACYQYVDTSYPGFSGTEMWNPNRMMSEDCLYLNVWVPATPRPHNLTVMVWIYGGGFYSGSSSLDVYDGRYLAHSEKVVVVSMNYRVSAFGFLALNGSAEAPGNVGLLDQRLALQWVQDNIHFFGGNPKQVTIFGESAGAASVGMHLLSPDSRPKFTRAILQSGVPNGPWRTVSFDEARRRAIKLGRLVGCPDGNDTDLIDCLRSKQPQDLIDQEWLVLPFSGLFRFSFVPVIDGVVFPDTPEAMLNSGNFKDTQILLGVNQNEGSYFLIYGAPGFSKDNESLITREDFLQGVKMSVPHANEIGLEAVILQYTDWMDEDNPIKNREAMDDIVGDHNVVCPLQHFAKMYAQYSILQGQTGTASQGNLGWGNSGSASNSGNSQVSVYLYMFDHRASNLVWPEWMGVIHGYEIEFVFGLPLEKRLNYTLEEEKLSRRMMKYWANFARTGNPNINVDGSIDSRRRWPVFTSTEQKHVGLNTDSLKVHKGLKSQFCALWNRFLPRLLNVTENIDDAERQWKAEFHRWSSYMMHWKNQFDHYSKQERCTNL
Procedure: as §1

Cholinesterase = Cholinesterase (Homo sapiens, UniProt P06276)
Chain of Cholinesterase (P06276 whole entry): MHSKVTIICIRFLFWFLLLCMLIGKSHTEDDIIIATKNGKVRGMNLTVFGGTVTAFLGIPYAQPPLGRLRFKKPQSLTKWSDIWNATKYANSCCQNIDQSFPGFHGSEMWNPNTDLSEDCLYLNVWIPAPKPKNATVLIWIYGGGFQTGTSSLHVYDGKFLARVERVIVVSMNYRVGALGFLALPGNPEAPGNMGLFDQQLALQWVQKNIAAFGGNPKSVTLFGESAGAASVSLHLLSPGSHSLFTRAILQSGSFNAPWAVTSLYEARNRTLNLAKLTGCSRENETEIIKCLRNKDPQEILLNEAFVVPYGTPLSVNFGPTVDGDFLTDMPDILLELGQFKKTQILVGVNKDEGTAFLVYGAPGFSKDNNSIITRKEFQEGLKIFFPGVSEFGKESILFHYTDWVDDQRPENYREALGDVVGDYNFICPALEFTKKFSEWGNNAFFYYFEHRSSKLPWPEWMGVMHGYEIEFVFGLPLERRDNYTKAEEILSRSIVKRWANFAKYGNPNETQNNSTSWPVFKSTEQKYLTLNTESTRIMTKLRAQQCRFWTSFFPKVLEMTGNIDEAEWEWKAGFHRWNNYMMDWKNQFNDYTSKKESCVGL
Procedure: as §1

Acetylcholinesterase [3] = target: Acetylcholinesterase (Tetronarce californica, UniProt P04058)
Chain of Acetylcholinesterase (Tetronarce californica, UniProt P04058) (P04058 whole entry): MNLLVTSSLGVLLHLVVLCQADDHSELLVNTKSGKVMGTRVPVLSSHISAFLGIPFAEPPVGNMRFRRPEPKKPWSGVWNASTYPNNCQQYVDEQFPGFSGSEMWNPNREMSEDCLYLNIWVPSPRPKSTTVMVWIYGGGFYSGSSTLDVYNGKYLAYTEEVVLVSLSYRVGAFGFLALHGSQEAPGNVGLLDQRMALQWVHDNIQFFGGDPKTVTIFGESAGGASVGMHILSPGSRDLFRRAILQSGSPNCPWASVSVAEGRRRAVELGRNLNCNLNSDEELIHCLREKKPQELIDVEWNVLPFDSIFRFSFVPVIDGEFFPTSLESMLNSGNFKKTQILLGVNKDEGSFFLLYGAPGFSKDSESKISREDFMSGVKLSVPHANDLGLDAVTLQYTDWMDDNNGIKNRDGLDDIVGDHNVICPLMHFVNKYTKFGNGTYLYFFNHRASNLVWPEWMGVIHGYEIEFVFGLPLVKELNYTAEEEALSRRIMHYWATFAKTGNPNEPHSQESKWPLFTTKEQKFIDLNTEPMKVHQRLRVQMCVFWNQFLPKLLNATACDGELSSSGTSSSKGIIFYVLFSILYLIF
Procedure: as §1

Chain of Acetylcholinesterase (Homo sapiens, UniProt P22303) (P22303 whole entry): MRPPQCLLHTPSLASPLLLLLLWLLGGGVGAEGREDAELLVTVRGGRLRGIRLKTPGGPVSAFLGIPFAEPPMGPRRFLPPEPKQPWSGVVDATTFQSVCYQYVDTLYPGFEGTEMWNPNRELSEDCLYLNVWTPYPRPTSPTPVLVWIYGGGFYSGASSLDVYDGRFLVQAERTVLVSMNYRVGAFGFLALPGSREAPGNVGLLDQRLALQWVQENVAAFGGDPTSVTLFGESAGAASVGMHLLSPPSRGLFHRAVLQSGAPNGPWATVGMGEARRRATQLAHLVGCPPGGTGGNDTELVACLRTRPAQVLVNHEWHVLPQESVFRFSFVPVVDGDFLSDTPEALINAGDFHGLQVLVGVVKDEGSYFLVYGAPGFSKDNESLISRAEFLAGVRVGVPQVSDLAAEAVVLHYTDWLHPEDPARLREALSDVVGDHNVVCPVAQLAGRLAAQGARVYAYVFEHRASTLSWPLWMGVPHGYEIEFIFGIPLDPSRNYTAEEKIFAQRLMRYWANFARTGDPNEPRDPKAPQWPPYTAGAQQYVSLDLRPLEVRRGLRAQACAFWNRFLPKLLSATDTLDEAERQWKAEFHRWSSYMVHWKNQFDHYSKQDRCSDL

SMILES	IC50 (Acetylcholinesterase [1]) [nM]	IC50 (Acetylcholinesterase [2]) [nM]	IC50 (Cholinesterase) [nM]	IC50 (Acetylcholinesterase [3]) [nM]	Ki (Acetylcholinesterase [2]) [nM]
COc1cc(C(=O)NCCCCCCCCC(=O)NNc2c3c(nc4ccccc24)CCCC3)cc(OC)c1OC [3,4,5-Trimethoxy-N-(9-oxo-9-(2-(1,2,3,4-tetrahydroacridin-9-yl)hydrazino)nonyl)-benzamide]	5.08	2.73	1.38	5.99	–
COc1cc(C(=O)NCCCCCCCC(=O)NNc2c3c(nc4ccccc24)CCCC3)cc(OC)c1OC [3,4,5-trimethoxy-N-[7-(N'-1,2,3,4-tetrahydroacridin-9-ylhydrazinecarbonyl)heptyl]benzamide]	–	–	–	–	3.23
